Assay results from PMC6277767, “Broad and Region-Specific Impacts of the Synthetic Cannabinoid CP 55,940 in Adolescent and Adult Female Mouse Brains” (Frontiers in Molecular Neuroscience, 2018).

Experiment: CP 55,940 levels in eight brain regions 2 h after single i.p. 3 mg/kg injection (HPLC/MS/MS)
Format: in vivo, mouse
Conditions: for CP 55,940 level: 3mg/kg CP 55,940, mean
Protocol: The Bloomington Institutional Animal Care and Use Committee of Indiana University reviewed and approved the animal procedures. Female mice from the CD1 strain were utilized to match our study examining THC’s effects on the brain lipidome ([Leishman et al., 2018]). Mice were given a single i.p. injection of either 3 mg/kg CP or 1:1:18 cremophor:ethanol:saline vehicle (please refer to the section “3 mg/kg CP Is Relevant for Synthetic Cannabinoid Abuse and Has Stronger Effects on the Female Mouse Brain Lipidome During Adolescence” for a justification of dose and use of female mice). Three different age groups were given injections: PND 35 and PND 50 adolescents, and adult mice (PND 113). At least eight mice in each age group received CP and at least eight received vehicle. Matching the THC study time course ([Leishman et al., 2018]), mice were sacrificed via rapid decapitation 2 h after injection. Brains were immediately removed and flash-frozen in liquid nitrogen, and then stored at -80°C until dissections were performed. Brains were dissected on an ice-cold dissection plate into the following regions: STR, HIPP, CER, THAL, CTX, HYP, MID, and STEM. These abbreviations for these brain areas will be used exclusively when discussing the results generated by these specific dissections. Each dissected area was immediately placed in liquid nitrogen and then stored at -80°C until used for lipid extraction.
Tissue extracts were performed as previously described ([Bradshaw et al., 2006]; [Stuart et al., 2013]; [Raboune et al., 2014]; [Leishman et al., 2016a],[b], [2017], [2018]). First, samples were shock frozen in liquid nitrogen, weighed, and transferred to a centrifuge tube. The mass of the largest sample was multiplied by 50 to determine how many milliliters of HPLC-grade methanol (Fisher, Fair Lawn, NJ, United States) to add. Then, samples were spiked with 500 pmol deuterium-labeled NAGly (d8NAGly; Cayman Chemical, Ann Arbor, MI, United States). Samples were placed on ice in darkness for 2 h then individually homogenized and centrifuged at 19,000 × g for 20 min at 20°C. Supernatants were diluted with HPLC water (purified in house) to make a solution of 75% water, 25% supernatant. Lipids were partially purified on C18 solid phase extraction columns (Agilent, Palo Alto, CA, United States). A series of four elutions with 1.5 mL of 60%, 75%, 85%, and 100% methanol were collected ([Stuart et al., 2013]; [Leishman et al., 2016a],[b], [2018]).
As previously described ([Bradshaw et al., 2006]; [Tan et al., 2006]; [Smoum et al., 2010]; [Stuart et al., 2013]; [Tortoriello et al., 2013]; [Raboune et al., 2014]; [Leishman et al., 2016a],[b], [2017], [2018]), samples were analyzed using an Applied Biosystems API 3000 triple quadrupole mass spectrometer with electrospray ionization (Foster City, CA, United States). Using an Agilent XDB-C18 reversed phase analytical column and optimized mobile phase gradients, 20 μL from each elution were chromatographed. Two Shimadzu 10ADvp pumps (Columbia, MD, United States) provided the pressure for gradient elution. Mobile phase A: 20% methanol, 80% water (v/v) and 1 mM ammonium acetate (Sigma, St. Louis, MO, United States). Mobile phase B: 100% methanol, 1 mM ammonium acetate. Every method run began with 0% mobile phase B, reached 100% mobile phase B flowing at 0.2 mL/min, and gradually returned to 0% mobile phase B.
This screening library will be referred to as the lipidome when discussing data from this study. HPLC/MS/MS data were analyzed using Analyst software (Applied Biosystems) ([Bradshaw et al., 2006]; [Tan et al., 2006]; [Stuart et al., 2013]; [Tortoriello et al., 2013]; [Raboune et al., 2014]; [Leishman et al., 2016a],[b], [2017], [2018]). Chromatograms (Supplementary Figure 3) were generated by determining the retention time of analytes from the analytical column with a [M-1] or [M+1] parent peak and a fragmentation peak corresponding to the programmed values. […]

[1] = brainstem, PND 50, 3 mg/kg CP 55,940, one-way ANOVA p .000
[2] = cerebellum, PND 50, 3 mg/kg CP 55,940
[3] = cerebellum, adult, 3 mg/kg CP 55,940
[4] = cerebellum, PND 35, 3 mg/kg CP 55,940
[5] = cortex, PND 35, 3 mg/kg CP 55,940
[6] = hippocampus, PND 50, 3 mg/kg CP 55,940 vs Veh
[7] = hippocampus, adult, 3 mg/kg CP 55,940
[8] = hippocampus, PND 35, 3 mg/kg CP 55,940 vs vehicle
[9] = striatum, PND 50, 3mg/kg CP 55,940 vs Veh
[10] = striatum, adult, 3 mg/kg CP 55,940, one-way ANOVA p .000
[11] = striatum, PND 35, 3mg/kg CP 55,940
[12] = thalamus, PND 50, 3 mg/kg CP 55,940
[13] = thalamus, adult, 3 mg/kg CP 55,940
[14] = thalamus, PND 35, 3 mg/kg CP 55,940

## CCCCCCC(C)(C)c1ccc([C@@H]2C[C@H](O)CC[C@H]2CCCO)c(O)c1 [CP 55,940]
brainstem, PND 50, 3 mg/kg CP 55,940
  CP 55,940 level, Mean: 8.2E-11
[1]
  CP 55,940 level, Direction (relative to Veh): ↑
  CP 55,940 level, Magnitude (x Veh level): infinite
[2]
  CP 55,940 level: Direction (relative to Veh): ↑
  CP 55,940 level: Magnitude (x Veh level): infinite
cerebellum, PND 50 female mice, 3 mg/kg CP 55,940
  CP 55,940 level, Mean: 7.57E-11
cerebellum, WT adult female mice, 3mg/kg CP 55,940
  CP 55,940 level, Mean: 2.8E-10
[3]
  CP 55,940 level: Direction (relative to Veh): ↑
  CP 55,940 level: Magnitude (x Veh level): infinite
[4]
  CP 55,940 level: Direction (relative to Veh): ↑
  CP 55,940 level: Magnitude (x Veh level): infinite
cerebellum, PND35 WT female mice, 3mg/kg CP 55,940
  CP 55,940 level, Mean: 7.22E-11
cortex, PND 50, 3 mg/kg CP 55,940
  CP 55,940 level, Direction (relative to Veh): ↑
cortex, PND 50, 3 mg/kg CP 55,940, ANOVA p .000
  CP 55,940 level, Magnitude (x Veh level): infinite
cortex, PND 50 female mice, 3mg/kg CP 55,940
  CP 55,940 level, Mean: 8.61E-11
[5]
  CP 55,940 level Direction (rel to Veh): ↑
  CP 55,940 level, Magnitude (x Veh level): infinite
cortex, PND 35 adolescent female mice, 3 mg/kg CP 55,940
  CP 55,940 level, Mean: 1.11E-10
[6]
  CP 55,940 level, Direction (relative to Veh): ↑
  CP 55,940 level, Magnitude (x Veh level): infinite
hippocampus, PND 50 female mice
  CP 55,940 level: 1.23E-10
[7]
  CP 55,940 level, Mean: 2.68E-10
  CP 55,940 level: Direction (relative to Veh): ↑
  CP 55,940 level: Magnitude (x Veh level): infinite
[8]
  CP 55,940 level: Direction: ↑
  CP 55,940 level: Magnitude: infinite
hippocampus, PND 35 WT female mice, 3mg/kg CP 55,940
  CP 55,940 level, Mean: 9.63E-11
hypothalamus, PND 50, 3mg/kg CP 55,940
  CP 55,940 level, Direction (relative to Veh): ↑
hypothalamus, PND 50, 3mg/kg CP 55,940, ANOVA p .000
  CP 55,940 level, Magnitude (x Veh level): infinite
hypothalamus, PND 50 female mice, 3mg/kg CP 55,940
  CP 55,940 level, Mean: 4.38E-11
hypothalamus, PND 35 adolescent female mice, 3 mg/kg
  CP 55,940 level, Mean: 5.31E-11
midbrain, PND 50, 3mg/kg CP 55,940
  CP 55,940 level, Direction (relative to Veh): ↑
midbrain, PND 50, 3mg/kg CP 55,940, ANOVA p .000
  CP 55,940 level, Magnitude (x Veh level): infinite
midbrain, PND 50 female mice, 3mg/kg CP 55,940
  CP 55,940 level, Mean: 1.21E-10
midbrain, PND 35 WT adolescent female mice, 3 mg/kg
  CP 55,940 level, Mean: 7.91E-11
[9]
  CP 55,940 level, Direction (relative to Veh): ↑
  CP 55,940 level, Magnitude (x Veh level): infinite
striatum, PND 50 female mice
  CP 55,940 level: 5.87E-11
striatum, adult, 3 mg/kg CP 55,940
  CP 55,940 level, Mean: 2.08E-10
[10]
  CP 55,940 level, Direction (relative to Veh): ↑
  CP 55,940 level, Magnitude (x Veh level): infinite
[11]
  CP 55,940 level: Direction (relative to Veh): ↑
  CP 55,940 level: Magnitude (x Veh level): infinite
[12]
  CP 55,940 level: Direction (relative to Veh): ↑
  CP 55,940 level: Magnitude (x Veh level): infinite
thalamus, PND 50 female mice, 3 mg/kg CP 55,940
  CP 55,940 level, Mean: 9.93E-11
thalamus, WT adult female mice, 3mg/kg CP 55,940
  CP 55,940 level, Mean: 2E-10
[13]
  CP 55,940 level: Direction (relative to Veh): ↑
  CP 55,940 level: Magnitude (x Veh level): infinite
[14]
  CP 55,940 level, Direction (relative to Veh): ↑
  CP 55,940 level, Magnitude (x Veh level): infinite
thalamus, PND 35 adolescent female mice, 3 mg/kg CP 55,940
  CP 55,940 level, Mean: 8.87E-11
